Target: Thymidine kinase (Herpes simplex virus type 1)
Experiment: Binding affinity towards HSV-1 thymidine kinase was determined

**Q.** For `Nc1nc2c(ncn2CCCCO)c(=O)[nH]1` [2-amino-9-(4-hydroxybutyl)-6,9-dihydro-3H-purin-6-one], which Ki is on record?
**A.** 2060 nM
